Series [1] relates to U46619-induced pulmonary vasoconstriction. As to the kind of experiment: Inhaled NO in lambs with U46619-induced pulmonary vasoconstriction. Format: in vivo, Suffolk lambs. The source says:
Eight Suffolk lambs weighing 25-35 kg underwent a sterile thoracotomy in order to place a left atrial line, tracheostomy and femoral artery line under general endotracheal anesthesia with halothane/oxygen three days before study. After three days of recovery the lambs underwent sterile placement of a 7 French thermal dilution pulmonary artery monitoring catheter under local anesthesia.
Awake unanesthetized lambs were studied in order to avoid general anesthesia which can blunt hypoxic vasoconstriction. Lambs were placed in a Babraham cage and allowed to drink and eat ad lib. Two studies were performed 2 days apart on each of six lambs. After the study the lambs were sacrificed with an overdose of barbiturate and heir lungs were fixed, stained and examined by light microscopy for pathological changes.
On the first study day lambs breathing 60-70% oxygen were given an infusion of a potent pulmonary vasoconstrictor, the stable endoperoxide analog (5Z, 9α, 13E, 15S)-11,9-(Epoxymethano)prosta-5,13-dien-1-oic acid (U46619, The Upjohn Company, Kalamazoo, Mich.) of thromboxane at a rate of 0.4-0.8 μg/kg/min. The tracheostomy was connected to a non-rebreathing circuit consisting of a 5 liter reservoir bag and one way valves to isolate inspired from expired gas. Expired gas was scavenged and discarded. The inspired gas was a precise mixture of oxygen and nitrogen immediately diluted with NO to produce the correct inspired concentration. Using volumetrically calibrated flowmeters, varying quantities of NO were mixed with N2 to obtain the desired inspired NO concentration at an inspired oxygen concentration (Fi O2) of 0.6-0.7. The reservoir bag was emptied after each level of NO inhalation. The residence half time of NO in the gas reservoir was 15 seconds or less to minimize conversion to NO2. NO was obtained from Air Products and Chemicals, Inc., Allentown, Pa. as a mixture of 235 ppm NO in pure N2. […] Fontijin, Anal. Chem. 27:1903 (1981).
Each level of NO exposure was followed by six minutes of breathing the oxygen mixture without NO (FIG. 2). A second exposure to NO was examined for similar periods. Subsequently, a control period breathing the oxygen mixture was studied six minutes after ceasing U46619 infusion. At each three and six minute time period after administering or discontinuing NO during the study, we measured mean and phasic pulmonary artery pressure (PAP), left atrial pressure (LAP), systemic arterial pressure (SAP) and central venous pressure (CVP). All pressures were recorded on a Hewlett Packard multi-channel strip chart recorder with transducers zeroed to atmospheric pressure at the mid point of the thorax (e.g., see FIG. 3). Cardiac output (CO) was measured by thermal dilution as the average of two determinations injecting 5 ml of 0° C. Ringers lactate. Pulmonary vascular resistance (PVR) and systemic vascular resistance (SVR) were computed by standard formulae; PVR measured at each inhaled NO concentration is shown in FIG. 4. Appropriate statistical analyses were performed, and all data were expressed as mean ± standard error.

The next series relates to ARDS. As to the kind of experiment: NO inhalation in nine additional ARDS patients. Type of series: in vivo, human. The source says: Subsequent subjects. Nine additional patients have been treated for ARDS by NO inhalation, for periods up to 28 days.
In the next series the test system is normal bronchial tone. As to the kind of experiment: NO effects on normal bronchial tone. Format: in vivo, Hartley strain guinea pigs. To be noted: 300 ppm NO, without methacholine infusion (FIG. 8). How it is done:
Male Hartley strain guinea pigs (300-440g body wt) were anesthetized with α-chloralose (50 mg/kg) and urethane (500 mg/kg) (Drazen et al., J. Appl. Physiol. 48:613-618, 1980). A tracheostomy was performed, and the animals were intubated with a tubing adaptor (ID 1.65 mm) and ventilated with a small animal ventilator (Harvard Apparatus, a division of Ealing Scientific, Natick, Mass.) at 8 ml/kg and 60 breaths/min. A jugular vein was cannulated for intravenous administration of drugs. The chest was opened by bilateral excision of a portion of the ribs anteriorly so that the lungs were exposed to atmospheric pressure (Shore and Drazen, J. Appl. Physiol. 67:2504-2511, 1989). A positive end expiratory pressure of 3-4 cmH2 O was provided.
Guinea pigs were then placed inside a plethysmograph (Amdur and Mead, Am. J. Physiol. 192:363-368, 1958), that was connected to a large reservoir containing copper mesh to maintain the plethysmograph isothermal. Plethysmograph pressure was measured with a differential pressure transducer (Celesco, Canoga Park, Calif.); the opposite side of this transducer was connected to a similar reservoir. Pressure at the airway opening was measured from a side tap in the tracheal canula. Transpulmonary pressure was measured with a differential pressure transducer (Celesco) as the difference between airway opening pressure and the pressure inside the plethysmograph. […]

The mark [2] stands for this setting: regression vs NO concentration, eight lambs.

We go through one compound from patent US5873359A, “Methods and devices for treating pulmonary vasoconstriction and asthma” (The General Hospital Corporation, priority 1994, dated 1999).

Regarding `[N]=O` [NO, nitric oxide], the PA pressure entry in series [1] (5 ppm NO (0.89 μg/kg/min)) is on record as “significantly reduced the PA pressure”. The vasodilator response result in series [1] (40 or 80 ppm NO) is reported as “almost complete vasodilator response”. Further, the PAP entry in series [1] (80 ppm NO for one hour, four lambs) is listed as “pulmonary vasodilation to a normal PAP”. Besides, the “time to nearly maximal vasodilator effect” value in series [1] (FIG. 3) is “within three minutes”. The “pulmonary hypertension after NO inhalation” value in series [1] (after 80 ppm NO for one hour, four lambs) is reported as “pulmonary hypertension recurring after NO inhalation”. In addition, the “onset of pulmonary vasodilation” value in series [1] (after beginning NO inhalation) was “within seconds”. Moreover, the “return to prior level of vasoconstriction after ceasing NO” value in series [1] (after ceasing to inhale NO) was “within three to six minutes”. In addition, the “pulmonary vasoconstriction and pulmonary hypertension” value in series [1] (all dose levels of NO (5-80 ppm)) was “prompt reduction of the pulmonary vasoconstriction and pulmonary hypertension”. In addition, in series [1] (setting [2]), the CO entry is recorded as “no significant change”, the SVR entry is reported as “no significant change” and the “mean SAP” value is “no significant change”. For the same compound, in series [1] (second exposure to 5, 10 and 20 ppm NO), the “vasodilator response of second exposure” value is recorded as “no significant reduction from the prior series of exposures”. The methemoglobin levels entry in the series on ARDS (NO inhalation up to 28 days) is “No important increase of methemoglobin levels”. Besides, in the series with ARDS (during NO breathing), the PAP result is “reduced PAP” and the “QVA /QT” value is “marked reductions of QVA /QT”. Further, the survival result with ARDS (nine patients, up to 28 days) is given as “Seven survived”. Also, the baseline bronchomotor tone result in the series on normal bronchial tone was “decreased the baseline bronchomotor tone”.
